Earlier results in patent US20230404944A1, “CANNABINOID ENCAPSULATION TECHNOLOGY” (ZELIRA THERAPEUTICS OPERATIONS PTY LTD, priority 2020, published 2023).

C=C(C)[C@@H]1CCC(C)=C[C@H]1c1c(O)cc(CCCCC)cc1O [CBD, cannabidiol]
Oral bioavailability in plasma (plasma): approximately 6% | Oral bioavailability in tissues (tissues): ~1%
